{"source": "patent US7429473B2", "about": "“Diacylglycerol acyltransferase genes, proteins, and uses thereof” (Michigan State University, priority 2003, dated 2008)", "tested_on": "Euonymus alata diacylglycerol acetyltransferase (AcDAGAT), native enzyme activity in cell free homogenate of endosperm plus embryo", "experiment": "AcDAGAT assay with [1-14C]acetyl-CoA in cell free homogenate (CFH) of developing Euonymus alata seeds", "format": "biochemical", "experimental": "Characterization of acyltransferase activity by in vitro assays. Acyltransferase activity was assayed by incubating [^14C]acetyl-CoA with cell free extracts from developing Euonymus alata seeds and exogenous 1,2-diacylglycerol (DAG). Total lipids were extracted, radioactivity assayed, then the amount of label in the 1,2-diacyl-3-acetin fraction determined by TLC. There was a very high (greater than about 20-fold), largely soluble acetyl-CoA hydrolase activity that competed with the transferase for substrate.\nAll procedures were carried out on ice or at 4° C. Frozen embryo and endosperm tissue was added to two volumes of chilled buffer containing 0.3 M sucrose, 10 mM NaF, 5 mM MgCl2, 2 mM dithiothreitol, 1 mM EDTA and 40 mM Hepes -NaOH (pH 7.4), homogenized, and filtered through two layers of Miracloth. The residue was rehomogenized in two more volumes of buffer and filtered. The filtrates were combined and constitute the cell free homogenate (CFH). The CFH was frozen and stored at −70° C. until used and typically contained 12-17 mg protein/ml. Protein concentrations were estimated using the Bio-Rad protein assay, which is based on the Bradford method (1976), using bovine serum albumin as the standard.\nThe standard (Ac)DAGAT assay contained [1-^14C]acetyl-CoA (100 μM, 200,000 d.p.m.) plus 140 μl of homogenization buffer in a total volume of 200 μl. 1,2-dioleoyl-sn-glycerol (50 μg, 0.4 mM) was added as 1 μl of ethanol solution. The assay was initiated by adding 20 μl of CFH. The reaction was run at room temperature (25° C.) for 1S min and terminated by the addition of hot isopropanol (1 ml). Lipids were extracted with hexane and isopropanol as described by Hara and Radin (1978). The [^14C]lipid residue was dissolved in hexane and an aliquot assayed for radioactivity by liquid scintillation counting. The standard long-chain DAGAT assay contained 20 μM [1-^14C]palmitoyl-CoA and 20-40 μl of CFH and was run for 30 minutes: all other aspects were as for acetyl DAGAT assays.\nIncubation of cell free homogenates (CFH) from developing Euonymus alata endosperm plus embryo tissues with [^14C]acetyl-CoA produced labeled lipids. […] Long-chain TAG elutes ahead of Ac-TAG in this solvent system. When this labeled band was recovered and analyzed by C 18 reversed-phase TLC, the radioactivity migrated with the mass bands corresponding to the major Ac-TAG molecular species, namely C16/C18 and C18/C18. When a unique exogenous diacylglycerol, 1,2-dihexanoyl-sn-glycerol, was added to the assays, a novel band appeared that co-chromatographed with the synthetic 3-acetyl-1,2-dihexanoin standard in both normal and reverse phase TLC systems. The migration of the standard was confirmed by GC analysis of recovered fractions from the TLC plates. […]", "data": [{"compound": "CC(=O)SCCNC(=O)CCNC(=O)[C@H](O)C(C)(C)COP(=O)(O)OP(=O)(O)OC[C@H]1O[C@@H](n2cnc3c(N)ncnc32)[C@H](O)[C@@H]1OP(=O)(O)O", "note": "[acetyl-CoA]", "values": [{"measurement": "Km", "setting": "Lineweaver-Burke reciprocal plot, CFH, 25° C.", "value": 100, "unit": "µM"}, {"measurement": "Vmax (estimate from acetyl-CoA concentration curve)", "setting": "acetyl-CoA concentration curve, cell free extracts of developing seeds", "value": "120 nmoles/hour/gram fresh weight seed tissue"}, {"measurement": "Vmax", "setting": "acetyl-CoA varied, Lineweaver-Burke reciprocal plot, CFH", "value": 2.5, "unit": "nmoles/min/gfw"}]}, {"compound": "CCCCCCCC/C=C\\CCCCCCCC(=O)OC[C@H](CO)OC(=O)CCCCCCC/C=C\\CCCCCCCC", "note": "[sn-1,2-diolein, 1,2-dioleoyl-sn-glycerol]", "values": [{"measurement": "average enhancement of AcDAGAT activity by exogenous sn-1,2-diolein", "setting": "0.1-1.2 mM sn-1,2-diolein added, endogenous DAG present", "value": 30, "unit": "%"}]}]}
